“Also recorded” adds a separate entry of the source.
How the values were obtained:
[1] = tested on: mouse embryos; experiment: Ex utero culture of mouse embryos from E6.5 in supplemented EUCM, proper embryo development per stage
Description: E5.5 and E6.5 embryos ex utero culture—Cultures starting with pre-gastrulation (E5.5) and early gastrulation (E6.5) embryos were effected in static culture conditions until the early somite stage. Embryos were dissected out of the uterus and individual embryos were transferred into each well of a 8-wells glass bottom/ibiTreat μ-plates (iBidi; 80827/80826) filled with 250 μl of EUCM. To optimize culturing conditions, different media, oxygen concentrations (5% or 21%), extracellular matrices (Matrigel), supplements (N2/B27), and gas pressures (hyperbaric 2.5 or 5 psi) were tested. Media was pre-heated for an hour in an incubator with 5% CO2 at 37° C. Pre-primitive streak stage embryos (distal and anterior visceral endoderm stage) were chosen for culture in the case of E5.5, and early-primitive streak stage embryos were selected for cultures beginning at E6.5. Only embryos with no evident damage and without Reichert's membrane were cultured. Half a volume of media was replaced every 24 hours. Embryos were transferred into the rotating culture at the 4-7 somite stage (three days for cultures started at E5.5 and two days for cultures started at E6.5) or at the late gastrulation stage using the same conditions described previously for E8.5, with the difference that embryos were maintained in a constant atmosphere of 21% oxygen and 5% CO2. Transfer of the embryos at earlier or later stages results in failure of further development. Dynamic oxygen conditions yielded slightly less efficiency for expanding E6.5-E11 than using constant 21% oxygen (FIGS. 10A-B). This difference could result from oxygen diffusion in static conditions being be less efficient than in roller conditions, and that might be why higher oxygen is needed to be delivered in protocols that include static conditions. To allow further culture of the embryos until the stage (E13.5), oxygen was increased to 95% from E10.5 onwards and at E11.5 the embryos were dissected out of the yolk sac and amnion carefully avoiding rupture of any major yolk sac blood vessels, but keeping the yolk sac and umbilical cord attached to the embryo. Morphological evaluation of mouse embryo development—Assessment of appropriate embryo development was performed based on previously established morphological features [Van Maele-Fabry, G., et al. Toxicol. Vitr. 4, 149-156 (1990); Van Maele-Fabry, G., et al. Int. J. Dev. Biol. 36, 161-167 (1992)]. Only embryos presenting all of the following features were considered as properly developed. Proper development at the morphological level from E5.5/E6.5 to E8.5 was assessed as follows: At E6.5, the embryos are constituted by three cell lineages: the cup-shaped pluripotent epiblast (Epi) and two extra-embryonic lineages, the extraembryonic ectoderm (ExE) and the visceral endoderm (VE). The cavities in the embryonic and extraembryonic compartments are unified to form the pro-amniotic cavity, radial symmetry is broken in the epiblast to initiate specification of the primitive streak. After 1 or 2 days of culture ex utero (depending on the time of culture initiation, E5.5 or E6.5), the embryos reach the neural plate stage equivalent to E7.5, with no allantoic bud or early bud. The amniotic folds fuse to form the amnion, and the chorion develops from the ExE and the extraembryonic mesoderm. These events generate three cavities in the embryo: amniotic, exocoelomic and ectoplacental cavities. A small allantois bud is present in some of the embryos, at the base of the primitive streak, and the anterior ectoderm begins to form the future neural groove. On the following day, cultured embryos present between 4 to 8 pairs of somites with the embryo curved dorsally, the yolk sac and yolk sac blood circulation has been established, the allantois started to fuse with the chorion, head folds are well-formed as well as the invaginating foregut and beating heart. […]

[2] = tested on: neural tube closure in mouse embryos; experiment: Teratogenic experiments in mouse embryos cultured ex utero since E7.5; details: 1 mM in culture media from E8.5 to E9.5, n=6
Description: E7.5 embryo dissection and ex utero culture—Mouse embryos were obtained from non-hormone primed pregnant mice sacrificed by cervical dislocation at E7.5. Subsequently, embryos were dissected out from the uterus in dissection medium pre-equilibrated at 37° C. for 1 hour, consisting of DMEM (GIBCO 11880; includes already 1 mg/mL D-glucose and pyruvate, without phenol red and without L-glutamine) supplemented with 10% Fetal Bovine Serum (Biological Industries; 040131A), sterilized by using a 0.22 μm filter (JetBiofil; FCA-206-250). The embryos were carefully dissected from the decidua and parietal yolk sac leaving the intact ectoplacental cone attached to the egg cylinder. Briefly, the decidua was isolated from the uterine tissue and the tip of the pear-shaped decidua was cut. The decidua was then opened into halves by introducing the forceps adjacent to the embryo in parallel to its long axis and subsequently opening the forceps. Afterwards the embryo was grasped from the decidua and the parietal yolk sac was peeled off the embryo using two forceps. Embryo dissection was performed on a microscope equipped with a Tokai Hit thermo plate at 37° C., within a maximum of 30 minutes to avoid affecting the embryo developmental potential. […] Developmental stage of the embryos was determined according to Downs & Davies^5. […]

Row | Structure (SMILES) | effect on forebrain growth and forebrain defects ([1]; 1 mM sodium pyruvate added to EUCM) | proper embryo development at E7.5 ([1]; EUCM with additional 4 mg/ml glucose and 1 mM sodium pyruvate since E6.5, stage E7.5) | proper embryo development at E8.5 (embryos/total) ([1]; EUCM with additional 4 mg/ml glucose and 1 mM sodium pyruvate since E6.5, stage E8.5) | proper embryo development at E9.5 ([1]; EUCM with additional 4 mg/ml glucose and 1 mM sodium pyruvate since E6.5, stage E9.5) | proper embryo development at E10.5 ([1]; EUCM with additional 4 mg/ml glucose and 1 mM sodium pyruvate since E6.5, stage E10.5) | proper embryo development at E11.5 ([1]; EUCM with additional 4 mg/ml glucose and 1 mM sodium pyruvate since E6.5, stage E11.5) | proper embryo development at E12.5 ([1]; EUCM with additional 4 mg/ml glucose and 1 mM sodium pyruvate since E6.5, stage E12.5) | effect on culture efficiency ([1]; additional 4 mg/ml glucose and 1 mM sodium pyruvate in EUCM since E6.5) | teratogenic effect on neural tube closure [2]
1 | CC(=O)C(=O)[O-].[Na+] [sodium pyruvate] | promotes forebrain growth and eliminates forebrain defects | 8/8 - 100% | 7/7 (1 attached) | 6/7 - 85.7% | 6/7 - 85.7% | 4/7 - 57% | 4/7 - 57% | helps to improve culture efficiency | 
2 | CCCC(CCC)C(=O)O [valproic acid] |  |  |  |  |  |  |  |  | neural tube closure defects; also recorded: teratogenic effects of valproic acid on neural tube closure could be recapitulated
